Assay results: ChEMBL document CHEMBL5360547 (Eur J Med Chem, 2023)
Active and inactive are the calls of the source. The calls are words filed in the database; no cut-off is given here.

Columns and labels:
Mus musculus [1] = test: Neuroprotective activity against middle cerebral artery occlusion-induced brain infarction C57BL/6 mouse model assessed as decrease in neurological deficit score at 10 mg/kg, ip and measured after 24 hrs by animal behavioral study relative to control; format: functional
Cortical neurone [2] = test: Cytotoxicity against primary C57BL/6J E14-17 mouse Cortical neuron assessed as decrease in cell viability upto 50 uM incubated for 24 hrs by CCK-8 assay; format: toxicity, cell-based
[3] = Toxicity in middle cerebral artery occlusion-induced brain infarction C57BL/6 mouse model assessed as survival rate at 10 mg/kg, ip and measured after 24 hrs; format: organism-based; conditions: in vivo
in vivo = conditions: C57BL/6, mouse, ip, 20 mg/kg
Cortical neurone [4] = test: Neuroprotective activity against oxygen glucose deprivation induced ischemic stroke model in primary C57BL/6J E14-17 mouse Cortical neurons assessed as increase in cell viability at 0.5 to 20 uM incubated for 24 hrs by CCK-8 assay; format: functional, cell-based; conditions: dose 0.5-20 µM
Mus musculus [5] = test: Neuroprotective activity against middle cerebral artery occlusion-induced brain infarction C57BL/6 mouse model assessed as reduction in cerebral infarct volume at 20 mg/kg, ip and measured after 24 hrs by TTC staining based assay; format: functional, organism-based
SH-SY5Y [6] = test: Neuroprotective activity against oxygen glucose deprivation induced ischemic stroke model in human SH-SY5Y cells assessed as cell viability at 20 uM incubated for 24 hrs by CCK-8 assay; format: functional; conditions: read-out: Activity
SH-SY5Y [7] = test: Neuroprotective activity against oxygen glucose deprivation induced ischemic stroke model in human SH-SY5Y cells assessed as cell viability at 2 uM incubated for 24 hrs by CCK-8 assay; format: functional; conditions: read-out: Activity
Cortical neurone [8] = test: Cytotoxicity against primary C57BL/6J E14-17 mouse Cortical neuron assessed as decrease in cell viability at 0.1 to 20 uM incubated for 24 hrs by CCK-8 assay; format: toxicity, cell-based; conditions: dose 0.1-20 µM
Cortical neurone [9] = test: Neuroprotective activity against oxygen glucose deprivation induced ischemic stroke model in primary C57BL/6J E14-17 mouse Cortical neurons assessed as increase in cell viability at 0.1 to 20 uM incubated for 24 hrs by CCK-8 assay; format: functional, cell-based; conditions: dose 0.1-20 µM
Cortical neurone [10] = test: Neuroprotective activity against oxygen glucose deprivation induced ischemic stroke model in primary C57BL/6J E14-17 mouse Cortical neurons assessed as increase in cell viability at 5 uM incubated for 24 hrs by CCK-8 assay (Rvb= 57.43 +/- 2.54 %); format: functional
Cortical neurone [11] = test: Neuroprotective activity against oxygen glucose deprivation induced ischemic stroke model in primary C57BL/6J E14-17 mouse Cortical neurons assessed as increase in cell viability at 1 uM incubated for 24 hrs by CCK-8 assay (Rvb= 57.43 +/- 2.54 %); format: functional; conditions: 24 h, 1 µM
Cortical neurone [12] = test: Cytotoxicity against primary C57BL/6J E14-17 mouse Cortical neuron assessed as decrease in cell viability at 10 to 20 uM incubated for 24 hrs by CCK-8 assay; format: toxicity, cell-based; conditions: dose 10-20 µM
Cortical neurone [13] = test: Cytotoxicity against primary C57BL/6J E14-17 mouse Cortical neuron assessed as decrease in cell viability at 0.1 to 5 uM incubated for 24 hrs by CCK-8 assay; format: toxicity, cell-based; conditions: dose 0.1-5 µM
Cortical neurone [14] = test: Cytotoxicity against primary C57BL/6J E14-17 mouse Cortical neuron assessed as decrease in cell viability at 1 uM incubated for 24 hrs by CCK-8 assay relative to control; format: toxicity, cell-based
Cortical neurone [15] = test: Cytotoxicity against primary C57BL/6J E14-17 mouse Cortical neuron assessed as decrease in cell viability at 10 uM incubated for 24 hrs by CCK-8 assay relative to control; format: toxicity, cell-based
Cortical neurone [16] = test: Neuroprotective activity against oxygen glucose deprivation induced ischemic stroke model in primary C57BL/6J E14-17 mouse Cortical neurons assessed as increase in cell viability at 10 uM incubated for 24 hrs by CCK-8 assay (Rvb= 57.43 +/- 2.54 %); format: functional; conditions: 24 h, 10 µM

SMILES: CCCCCCCCN(C)[C@H]1CC[C@@H](c2ccc(Cl)c(Cl)c2)c2ccccc21 [listing 1 of 2 here]
- Activity (Mus musculus [1]): 1.5
- Activity (Cortical neurone [2]): Non-Toxic
- survival at 24 h [3]: 100%
- mortality at 24 h (in vivo): 35.7%

SMILES: CCCCCCCCN(C)[C@H]1CC[C@@H](c2ccc(Cl)c(Cl)c2)c2ccccc21 [listing 2 of 2 here]
- Activity (Cortical neurone [4]): Active
- Activity (Mus musculus [5]): Active

SMILES: O=C(/C=C/c1ccc(O)c2c1[C@H](C(=O)O[C@H](Cc1ccc(O)c(O)c1)C(=O)O)[C@@H](c1ccc(O)c(O)c1)O2)O[C@H](Cc1ccc(O)c(O)c1)C(=O)O
- viability at 20 µM (SH-SY5Y [6]): 78.1%
- viability at 2 µM (SH-SY5Y [7]): 73.4%

SMILES: NCCc1c[nH]c2ccc(O)cc12 [SEROTONIN]
- Activity (Cortical neurone [8]): Non-Toxic
- Activity (Cortical neurone [9]): inactive

SMILES: CN[C@H]1CC[C@@H](c2ccc(Cl)c(Cl)c2)c2ccccc21 [SERTRALINE]
- Activity (Cortical neurone [10]): 65.9%
- Activity (Cortical neurone [11]): 67.21%
- Activity (Cortical neurone [12]): Toxic
- Activity (Cortical neurone [13]): Non-Toxic
- viability at 20 µM (SH-SY5Y [6]): 30.5%
- viability at 2 µM (SH-SY5Y [7]): 81.9%
- Activity (Cortical neurone [14]): 99.08%
- Activity (Cortical neurone [15]): 94.25%
- Activity (Cortical neurone [16]): 58.85%
- Activity (Cortical neurone [2]): Non-Toxic
